In US9394295B2, “Antibacterial homopiperidinyl substituted 3,4-dihydro-1H-[1,8]naphthyridinones” (Janssen Sciences Ireland UC, priority 2011, dated 2016):
≈ marks a conversion by molar mass, not a printed value. Values belong to the molecule of their own block, whether it stands above or below them.

How the values were obtained:
[1] = tested on: S. aureus; assay: Antibacterial susceptibility testing: IC90 determination with 10% human serum (STA + 10% HS); format: cell-based; conditions: Staphylococcus aureus; S. aureus with human serum at final concentration of 10%; read-out: STA + 10% HS (361.169) IC90
Protocol: (§1) The following bacteria were used: Staphylococcus aureus ATCC 29213, methicillin-resistant Staphylococcus aureus (MRSA) ATCC 700788 and Escherichia coli ATCC 35218. The bacteria used in this study were grown overnight in flasks containing 100 ml Mueller-Hinton broth (Difco cat. nr. 0757-17) in sterile de-ionized water, with shaking, at 37° C. Stocks were store at −70° C. until use.
(§2) Bacteria were incubated on a tryptic soy agar plate containing 5% sheep blood (Becton Dickinson cat. nr. 254053) for 18-24 hours at 35° C. in aerobic conditions (first passage). For the second passage, fresh Mueller-Hinton broth is inoculated with 5-10 colonies and grown overnight at 35° C. until turbidity (reaching log-phase) in aerobic conditions is reached. The bacterial suspension is then adjusted to 0.5 McFarland density and further diluted 1:100 in Mueller Hinton broth medium. This is used as inoculum.
(§3) MIC assays were performed by the broth microdilution method in a 96-well format (flat-bottom microtitre plates) with a final volume of 0.1 ml Mueller Hinton broth containing two-fold serial dilutions of compounds and inoculated with 5×10^5 CFU/ml of bacteria (standard inoculum size according to CLSI guidelines). Inhibitors are typically varied over the range of 63 to 0.49 μM. The final DMSO concentration in the assay was 1.25% (maximum tolerable DMSO concentration=6%). In the assays where the effect of human serum on the activity of the compounds against S. aureus was tested, human serum was added at a final concentration of 10%. The plates were incubated at 35° C. for 16-20 hours. At the end of incubation the bacterial growth was quantified fluorometrically. For this, resazurin was added to all wells and the plates were re-incubated. The incubation time is dependent on the type of bacteria. A change in color from blue to pink indicated the growth of bacteria. The fluorescence was read in computer-controlled fluorometer (Fluoroskan Ascent FL, Labsystems) at an excitation wavelength 540 nm and an emission wavelength of 590 nm. The % growth inhibition achieved by the compounds was calculated according to standard methods. The IC90 (expressed in μg/ml) was defined as the 90% inhibitory concentration for bacterial growth. A panel of reference compounds were simultaneously tested for QC approval.
The results are depicted in the table D2 below (STA+10% HS).

[2] = Cytotoxicity MTT assay (TOX HELAM); format: cell-based; conditions: human, HelaM cells, read-out: TOX HELAM (222.125) CC50
Protocol: Cytotoxicity of the compounds was evaluated using the MTT assay. Human HelaM cells grown in 96-well plates were exposed to serial dilutions of the tested compounds (final volume of 0.2 ml) and incubated for 72 hours at 37° C. and 5% CO2. Inhibitors are typically varied over the range of 25 to 0.8 μM. The final DMSO concentration in the assay is 0.5%. MTT (3-(4,5-Dimethylthiazol-2-yl)-2,5-diphenyltetrazolium bromide, a tetrazole) was added and reduced to purple formazan only in living cells. Solubilization of the formazan crystals was achieved by adding 100 μl 2-propanol. Cell viability was determined by measuring the absorbance of the reduced formazan, giving a purple color, at 540 nm and 690 nm. The absorbance measured at 690 nm was automatically subtracted from the absorbance at 540 nm, to eliminate the effects of non-specific absorption. The percent cytotoxicity achieved by the compounds was calculated according to standard methods. Cytotoxicity is reported as CC50, the concentration that causes a 50% reduction in cell viability.
The results are depicted in the table D2 below (TOX HELAM).

[3] = molecular target: T1, S. aureus ATCC 29213 FabI (Staphylococcus aureus, UniProt Q6GI75); assay: Staphylococcus aureus FabI enzyme inhibition assay; format: biochemical; conditions: 30 minutes at room temperature, NADH consumption
T1 sequence (Q6GI75 1-256): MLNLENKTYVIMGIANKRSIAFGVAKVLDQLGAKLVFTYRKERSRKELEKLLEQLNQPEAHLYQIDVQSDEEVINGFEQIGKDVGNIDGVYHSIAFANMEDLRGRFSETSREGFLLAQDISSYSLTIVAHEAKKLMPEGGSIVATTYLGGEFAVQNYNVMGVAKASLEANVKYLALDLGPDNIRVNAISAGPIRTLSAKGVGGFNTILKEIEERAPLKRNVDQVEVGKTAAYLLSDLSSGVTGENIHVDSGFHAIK
Protocol: FabI enzyme inhibition assays were carried out in half-area, 384-well microtitre plates. Compounds were evaluated in 40-μl assay mixtures containing 100 mM NaADA, pH 6.5 (ADA=N-[2-acetamido]-2iminodiacetic acid), 250 μM crotonoyl-CoA, 625 μM NADH and 50 μg/ml S. aureus ATCC 29213 FabI Inhibitors were typically varied over the range of 50 to 0.39 μM. The reaction mixtures were incubated for 30 minutes at room temperature and the reaction was stopped by adding 200 mM Tris buffer (pH 9.0) to create a pH-shift. The consumption of NADH was monitored by measuring the change in absorbance at […]. By comparing sample readings to those of negative (absence of compound) and positive (absence of enzyme) controls, the percent inhibition of enzymatic activity of the compounds was determined. A best-fit curve is fitted by a minimum of squares method. From this an IC50-value (expressed in μg/ml), resulting in 50% inhibition of enzymatic activity, was obtained.

[4] = tested on: Staphylococcus aureus ATCC 29213; assay: Antibacterial susceptibility testing: IC90 determination (STA); format: cell-based; conditions: ATCC29213, S. aureus ATCC 29213, 90% inhibitory concentration for bacterial growth, read-out: STA (361.159) IC90
Protocol: as §1, §2, §3

Compound: O=C1CCc2cc(/C=C/C(=O)N3CCCC(Cc4ccccc4)CC3)cnc2N1 (stereo not shown) [Co. No. 3]
IC90 [1]: 11.2 µg/mL
CC50 at 72 h [2]: > 9.78 µg/mL
IC50 [3]: 976 nM
IC90 [4]: 3.94 µg/mL (≈ 10.1 µM)

Compound: O=C1CCc2cc(/C=C/C(=O)N3CCCC(c4ccccc4)CC3)cnc2N1 (stereo not shown) [Co. No. 4]
IC90 [1]: 3.54 µg/mL
CC50 at 72 h [2]: > 9.43 µg/mL
IC50 [3]: 666 nM
IC90 [4]: 3.42 µg/mL (≈ 9.11 µM)

Compound: O=C1CCc2cc(/C=C/C(=O)N3CC=C(Cc4ccccc4)CCC3)cnc2N1 [Co. No. 5]
IC90 [1]: 10.9 µg/mL
CC50 at 72 h [2]: > 9.73 µg/mL
IC90 [4]: 4.66 µg/mL (≈ 12 µM)

Compound: COc1cccc(C2=CCN(C(=O)/C=C/c3cnc4c(c3)CCC(=O)N4)CCC2)c1 [Co. No. 6]
IC90 [1]: 6.32 µg/mL
CC50 at 72 h [2]: > 10.1 µg/mL
IC90 [4]: 3.21 µg/mL (≈ 7.96 µM)

Compound: Cc1ccccc1C1=CCN(C(=O)/C=C/c2cnc3c(c2)CCC(=O)N3)CCC1 [Co. No. 7]
IC90 [1]: 2.97 µg/mL
CC50 at 72 h [2]: > 9.73 µg/mL
IC50 [3]: 1140 nM
IC90 [4]: 1.47 µg/mL (≈ 3.79 µM)

Compound: COc1ccc(F)cc1C1=CCN(C(=O)/C=C/c2cnc3c(c2)CCC(=O)N3)CCC1 [Co. No. 13]
IC90 [1]: 3.05 µg/mL
CC50 at 72 h [2]: > 10.6 µg/mL
IC50 [3]: 1380 nM
IC90 [4]: 1.43 µg/mL (≈ 3.39 µM)

Compound: Cc1ccc(F)cc1C1=CCCN(C(=O)/C=C/c2cnc3c(c2)CCC(=O)N3)CC1 [Co. No. 15]
IC90 [1]: 1.02 µg/mL
CC50 at 72 h [2]: 8.57 µg/mL (≈ 21.1 µM)
IC50 [3]: 789 nM
IC90 [4]: 0.39 µg/mL (≈ 0.962 µM)

Compound: Cc1ccc(C)c(C2=CCCN(C(=O)/C=C/c3cnc4c(c3)CCC(=O)N4)CC2)c1 [Co. No. 17]
IC90 [1]: 0.72 µg/mL
CC50 at 72 h [2]: 4.11 µg/mL (≈ 10.2 µM)
IC50 [3]: 946 nM
IC90 [4]: 0.33 µg/mL (≈ 0.822 µM)

Compound: O=C1CCc2cc(/C=C/C(=O)N3CC=C(c4ccccc4F)CCC3)cnc2N1 [Co. No. 22]
IC90 [1]: 1.03 µg/mL
CC50 at 72 h [2]: 12.5 µg/mL (≈ 32 µM)
IC50 [3]: 664 nM
IC90 [4]: 0.59 µg/mL (≈ 1.51 µM)

Compound: COc1ccc(C2=CCN(C(=O)/C=C/c3cnc4c(c3)CCC(=O)N4)CCC2)cc1 [Co. No. 25]
IC90 [1]: 5.83 µg/mL
CC50 at 72 h [2]: > 10.1 µg/mL
IC50 [3]: 2130 nM
IC90 [4]: 3.06 µg/mL (≈ 7.58 µM)

Compound: COc1ccc(C2=CCCN(C(=O)/C=C/c3cnc4c(c3)CCC(=O)N4)CC2)cc1 [Co. No. 26]
IC90 [1]: 2.86 µg/mL
CC50 at 72 h [2]: > 10.1 µg/mL
IC50 [3]: 1660 nM
IC90 [4]: 1.46 µg/mL (≈ 3.62 µM)

Compound: CC1(c2ccccc2)CCCN(C(=O)/C=C/c2cnc3c(c2)CCC(=O)N3)CC1 (stereo not shown) [Co. No. 28]
IC90 [1]: 7.42 µg/mL
CC50 at 72 h [2]: > 9.78 µg/mL
IC50 [3]: ~1670 nM
IC90 [4]: 2.4 µg/mL (≈ 6.16 µM)

Compound: COc1cccc(F)c1C1=CCCN(C(=O)/C=C/c2cnc3c(c2)CCC(=O)N3)CC1 [Co. No. 31]
IC90 [1]: 0.26 µg/mL
CC50 at 72 h [2]: > 10.6 µg/mL
IC50 [3]: 1610 nM
IC90 [4]: 0.21 µg/mL (≈ 0.498 µM)

Compound: O=C1CCc2cc(/C=C/C(=O)N3CCc4ccccc4CC3)cnc2N1 [Co. No. 32]
IC90 [1]: 20.2 µg/mL
CC50 at 72 h [2]: > 8.73 µg/mL
IC50 [3]: 1530 nM
IC90 [4]: 21.4 µg/mL (≈ 61.7 µM)

Compound: O=C1CCc2cc(/C=C/C(=O)N3CC=C(c4ccccc4)CCC3)cnc2N1 [compound 1]
IC50 [3]: 964 nM

Now from value to molecule, other results behind:

IC90 [1]: 0.84 µg/mL
IC50 [3]: 852 nM
IC90 [4]: 0.69 µg/mL (≈ 1.78 µM)
Compound: Cc1ccccc1C1=CCCN(C(=O)/C=C/c2cnc3c(c2)CCC(=O)N3)CC1 [Co. No. 8]
CC50 at 72 h [2]: 9.3 µg/mL (≈ 24 µM)

IC90 [1]: 1.48 µg/mL
IC50 [3]: 967 nM
IC90 [4]: 0.99 µg/mL (≈ 2.45 µM)
Compound: COc1ccccc1C1=CCN(C(=O)/C=C/c2cnc3c(c2)CCC(=O)N3)CCC1 [Co. No. 9]
CC50 at 72 h [2]: > 10.1 µg/mL

IC90 [1]: 4.37 µg/mL
IC50 [3]: 1250 nM
IC90 [4]: 0.71 µg/mL (≈ 1.74 µM)
Compound: O=C1CCc2cc(/C=C/C(=O)N3CC=C(c4cccc(Cl)c4)CCC3)cnc2N1 [Co. No. 12]
CC50 at 72 h [2]: 8.23 µg/mL (≈ 20.2 µM)

IC90 [1]: 3.01 µg/mL
IC50 [3]: 946 nM
IC90 [4]: 1.49 µg/mL (≈ 3.71 µM)
Compound: Cc1ccc(C)c(C2=CCN(C(=O)/C=C/c3cnc4c(c3)CCC(=O)N4)CCC2)c1 [Co. No. 16]
CC50 at 72 h [2]: 9.09 µg/mL (≈ 22.6 µM)

IC90 [1]: 5.08 µg/mL
IC50 [3]: 1420 nM
IC90 [4]: 1.52 µg/mL (≈ 3.73 µM)
Compound: O=C1CCc2cc(/C=C/C(=O)N3CC=C(c4ccc(Cl)cc4)CCC3)cnc2N1 [Co. No. 18]
CC50 at 72 h [2]: 6.85 µg/mL (≈ 16.8 µM)

IC90 [1]: 1.15 µg/mL
IC50 [3]: 785 nM
IC90 [4]: 0.63 µg/mL (≈ 1.54 µM)
Compound: O=C1CCc2cc(/C=C/C(=O)N3CC=C(c4ccccc4Cl)CCC3)cnc2N1 [Co. No. 20]
CC50 at 72 h [2]: 8.52 µg/mL (≈ 20.9 µM)

IC90 [1]: 0.36 µg/mL
IC50 [3]: 932 nM
IC90 [4]: < 0.2 µg/mL
Compound: O=C1CCc2cc(/C=C/C(=O)N3CCC=C(c4ccccc4Cl)CC3)cnc2N1 [Co. No. 21]
CC50 at 72 h [2]: 9.24 µg/mL (≈ 22.7 µM)

IC90 [1]: 0.35 µg/mL
IC50 [3]: 1070 nM
IC90 [4]: 0.18 µg/mL (≈ 0.46 µM)
Compound: O=C1CCc2cc(/C=C/C(=O)N3CCC=C(c4ccccc4F)CC3)cnc2N1 [Co. No. 23]
CC50 at 72 h [2]: > 9.83 µg/mL

IC90 [1]: 6.17 µg/mL
IC50 [3]: 1910 nM
IC90 [4]: 1.52 µg/mL (≈ 3.73 µM)
Compound: O=C1CCc2cc(/C=C/C(=O)N3CCC=C(c4ccc(Cl)cc4)CC3)cnc2N1 [Co. No. 24]
CC50 at 72 h [2]: 7.25 µg/mL (≈ 17.8 µM)

IC90 [1]: 1.66 µg/mL
IC50 [3]: 2400 nM
IC90 [4]: 0.78 µg/mL (≈ 1.93 µM)
Compound: COc1cccc(C2=CCCN(C(=O)/C=C/c3cnc4c(c3)CCC(=O)N4)CC2)c1 [Co. No. 29]
CC50 at 72 h [2]: > 10.6 µg/mL

IC50 [3]: 4570 nM
Compound: O=C1CCc2cc(/C=C/C(=O)N3CCCC(n4cccn4)CC3)cnc2N1 (stereo not shown) [compound 49]

IC50 [3]: 2180 nM
Compound: O=C1CCc2cc(/C=C/C(=O)N3CCCC(n4ccnn4)CC3)cnc2N1 (stereo not shown) [compound 50]
